Experimental findings from patent US12319664B2, “Herbicidally active 3-phenylisoxazoline-5-carboxamides of cyclopentenylcarboxylic acid derivatives” (Bayer Aktiengesellschaft, priority 2018, dated 2025) are described below.

One experiment has as its system VERPE. Description: Pre-emergence herbicidal action against VERPE. The format is in vivo, Veronica persica. To be noted: application rate 80 g/ha. An excerpt:
(§1) 1. Pre-emergence herbicidal action against harmful plants and crop plant compatibility Seeds of monocotyledonous and dicotyledonous weed plants and crop plants are placed in plastic or wood-fibre pots and covered with soil. The compounds of the invention, formulated in the form of wettable powders (WP) or as emulsion concentrates (EC), are then applied onto the surface of the covering soil as aqueous suspension or emulsion with addition of 0.5% additive at a water application rate of 600 l/ha (converted). After the treatment, the pots are placed in a greenhouse and kept under good growth conditions for the trial plants. After about 3 weeks, the effect of the preparations is scored visually in comparison with untreated controls as percentages. For example, 100% activity=the plants have died, 0% activity=like control plants. [table]

For experiment [1], the system named is AVEFA. Kind of experiment: Post-emergence herbicidal action against AVEFA. To be noted: application rate 80 g/ha, rated visually after about 3 weeks. The format is in vivo, Avena fatua. Summed up: (§2)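 Activity was scored by eye roughly 3 weeks post-treatment relative to untreated plants, on a scale where 0% equals control and 100% equals dead plants. Treatment: spray onto green parts at one-leaf stage (2–3 weeks from sowing, sandy loam, greenhouse), WP/EC formulations with 0.5% additive, 600 l/ha water.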

Experiment [2] deals with LOLRI. Description: Post-emergence herbicidal action against LOLRI. The format is in vivo, Lolium rigidum. To be noted: application rate 80 g/ha, rated visually after about 3 weeks. Put shortly: as §2
Experiment [3] has as its system HORMU. Kind of experiment: Post-emergence herbicidal action against HORMU. The experiment is classed as in vivo, Hordeum murinum. To be noted: application rate 80 g/ha. Summed up: as §2
Experiment [4] relates to ALOMY. Kind of experiment: Pre-emergence herbicidal action against ALOMY. The format is in vivo, Alopecurus myosuroides. To be noted: application rate 80 g/ha, scored visually after about 3 weeks vs untreated controls (100% = plants have died, 0% = like control plants).
Description: as §1

In experiment [5] the test system is AVEFA. Description: Pre-emergence herbicidal action against AVEFA. The experiment is classed as in vivo, Avena fatua. To be noted: application rate 80 g/ha, scored visually after about 3 weeks vs untreated controls (100% = plants have died, 0% = like control plants).
Description: as §1

The test system of experiment [6] is ECHCG. Kind of experiment: Pre-emergence herbicidal action against ECHCG. To be noted: application rate 80 g/ha, scored visually after about 3 weeks vs untreated controls (100% = plants have died, 0% = like control plants). The format is in vivo, Echinochloa crus-galli.
Description: as §1

Experiment [7] relates to LOLRI. Description: Pre-emergence herbicidal action against LOLRI. The experiment is classed as in vivo, Lolium rigidum. To be noted: application rate 80 g/ha, scored visually after about 3 weeks vs untreated controls (100% = plants have died, 0% = like control plants).
Description: as §1

Experiment [8] has as its system SETVI. Description: Pre-emergence herbicidal action against SETVI. To be noted: application rate 80 g/ha, scored visually after about 3 weeks vs untreated controls (100% = plants have died, 0% = like control plants). The experiment is classed as in vivo, Setaria viridis.
Description: as §1

The subject of experiment [9] is AMARE. Description: Pre-emergence herbicidal action against AMARE. The experiment is classed as in vivo, Amaranthus retroflexus. To be noted: application rate 80 g/ha.
Description: as §1

Experiment [10] concerns STEME. Description: Pre-emergence herbicidal action against STEME. The experiment is classed as in vivo, Stellaria media. To be noted: application rate 80 g/ha.
Description: as §1

For experiment [11], the system named is HORMU. Kind of experiment: Pre-emergence herbicidal action against HORMU. The format is in vivo, Hordeum murinum. To be noted: application rate 80 g/ha.
Description: as §1

In experiment [12] the test system is ALOMY. Description: Post-emergence herbicidal action against ALOMY. The experiment is classed as in vivo, Alopecurus myosuroides. To be noted: application rate 80 g/ha, rated visually after about 3 weeks. Put shortly: as §2
In experiment [13] the test system is ECHCG. Kind of experiment: Post-emergence herbicidal action against ECHCG. The format is in vivo, Echinochloa crus-galli. To be noted: application rate 80 g/ha, rated visually after about 3 weeks. Summed up:
as §2

The subject of experiment [14] is SETVI. Description: Post-emergence herbicidal action against SETVI. The format is in vivo, Setaria viridis. To be noted: application rate 80 g/ha, rated visually after about 3 weeks. Summed up: as §2
Experiment [15] relates to AMARE. Description: Post-emergence herbicidal action against AMARE. The format is in vivo, Amaranthus retroflexus. To be noted: application rate 80 g/ha, rated visually about 3 weeks after treatment. Summed up: as §2
Experiment [16] concerns POLCO. Kind of experiment: Post-emergence herbicidal action against POLCO. The format is in vivo, Polygonum convolvulus. To be noted: application rate 80 g/ha, rated visually about 3 weeks after treatment. Put shortly:
as §2

Experiment [17] concerns STEME. Kind of experiment: Post-emergence herbicidal action against STEME. The experiment is classed as in vivo, Stellaria media. To be noted: application rate 80 g/ha, rated visually about 3 weeks after treatment. Put shortly:
as §2

For experiment [18], the system named is VIOTR. Description: Post-emergence herbicidal action against VIOTR. The format is in vivo, Viola tricolor. To be noted: application rate 80 g/ha, rated visually about 3 weeks after treatment. Summed up:
as §2

Another experiment deals with PHBPU. Kind of experiment: Pre-emergence herbicidal action against PHBPU. To be noted: application rate 80 g/ha. The format is in vivo, Pharbitis purpurea.
Description: as §1

Experiment [19] deals with POLCO. Kind of experiment: Pre-emergence herbicidal action against POLCO. To be noted: application rate 80 g/ha. The experiment is classed as in vivo, Polygonum convolvulus.
Description: as §1

The subject of experiment [20] is VIOTR. Kind of experiment: Pre-emergence herbicidal action against VIOTR. The experiment is classed as in vivo, Viola tricolor. To be noted: application rate 80 g/ha.
Description: as §1

As to `COC(=O)C1=CC[C@@H](NC(=O)C2(C)CC(c3cccc(F)c3)=NO2)C1` (mixture of isomers) [III-03, methyl (4R)-4-[[[(5SR)-3-(3-fluorophenyl)-5-methyl-4H-1,2-oxazol-5-yl]carbonyl]amino]cyclopentene-1-carboxylate], in the experiment with VERPE, the “Herbicidal action against [%] VERPE” value stood at 80%. Moreover, in the experiment with AVEFA [1], the “Herbicidal action against [%] AVEFA” value is listed as 90%. In the experiment on LOLRI [2], the “Herbicidal action against [%] LOLRI” value is listed as 80%. The “Herbicidal action against [%] HORMU” value in the experiment with HORMU [3] came to 90%.
Consider `CONC(=O)C1=CCC(NC(=O)C2(C)CC(c3cccc(F)c3)=NO2)C1` (mixture of isomers) [IV-04], for which the “Herbicidal action against [%] ALOMY” value in the experiment with ALOMY [4] and in the experiment on ALOMY [12] was 90% in each case. The “Herbicidal action against [%] AVEFA” value in the experiment on AVEFA [5] and with AVEFA [1] was 90% in each case. Also, the “Herbicidal action against [%] ECHCG” value worked out at 90% in the experiment with ECHCG [6] and 80% in the experiment with ECHCG [13]. Also, the “Herbicidal action against [%] LOLRI” value in the experiment on LOLRI [7] is recorded as 100%; with LOLRI [2], 90%. Moreover, the “Herbicidal action against [%] SETVI” value in the experiment with SETVI [8] stood at 100%; in the experiment on SETVI [14], 80%. For the same compound, the results for the “Herbicidal action against [%] AMARE” value with AMARE [9] and in the experiment with AMARE [15] were 90% and 80%, respectively. The “Herbicidal action against [%] STEME” value in the experiment with STEME [10] is listed as 90%; with STEME [17], 80%. The “Herbicidal action against [%] HORMU” value with HORMU [11] and with HORMU [3] was 90% each time. Besides, the “Herbicidal action against [%] POLCO” value in the experiment on POLCO [16] is 80%. In addition, the “Herbicidal action against [%] VIOTR” value in the experiment on VIOTR [18] is on record as 80%.
With `CC1(C(=O)N[C@@H]2CC=C(C(=O)O)C2)CC(c2cccc(F)c2)=NO1` (mixture of isomers) [III-01, (4R)-4-[[[(5SR)-3-(3-fluorophenyl)-5-methyl-4H-1,2-oxazol-5-yl]carbonyl]amino]cyclopentene-1-carboxylic acid], the “Herbicidal action against [%] VERPE” value in the experiment with VERPE came out at 90%. Moreover, the “Herbicidal action against [%] HORMU” value in the experiment on HORMU [11] was determined as 80%. In addition, in the experiment with AVEFA [1], the “Herbicidal action against [%] AVEFA” value is 80%.
On to `CN(C)NC(=O)C1=CCC(NC(=O)C2(C)CC(c3cccc(F)c3)=NO2)C1` (mixture of isomers) [IV-06], for which the “Herbicidal action against [%] ALOMY” value with ALOMY [4] worked out at 100%; in the experiment with ALOMY [12] it was 90%. Moreover, the “Herbicidal action against [%] ECHCG” value was 90% in the experiment on ECHCG [6] and 80% with ECHCG [13]. Further, the entries for the “Herbicidal action against [%] LOLRI” value with LOLRI [7] and with LOLRI [2] were 100% and 80%, respectively. The “Herbicidal action against [%] SETVI” value in the experiment on SETVI [8] worked out at 100%; in the experiment with SETVI [14], 80%. The “Herbicidal action against [%] AMARE” value with AMARE [9] and in the experiment on AMARE [15] was 80% in each case. For the same compound, the “Herbicidal action against [%] PHBPU” value in the experiment on PHBPU stood at 90%. Moreover, the “Herbicidal action against [%] POLCO” value with POLCO [19] and with POLCO [16] was 80% each time. The “Herbicidal action against [%] STEME” value in the experiment with STEME [10] came out at 90%; in the experiment on STEME [17], 80%. Further, the “Herbicidal action against [%] VIOTR” value with VIOTR [20] was determined as 100%; in the experiment on VIOTR [18] it was 90%. In addition, the “Herbicidal action against [%] HORMU” value in the experiment with HORMU [11] and with HORMU [3] was 90% each time. Besides, in the experiment with AVEFA [1], the “Herbicidal action against [%] AVEFA” value stood at 90%.
